US9943528B2 (MAPREG, priority 2016, dated 2018)
Where two headings read alike, the source gives them in different places.

How the values were obtained:
[1] = target: T1, human progesterone receptor (PR) (Homo sapiens, UniProt P06401); assay: Test of progesterone receptor antagonist activity (MMTV-luciferase transactivation with progesterone 1 nM); assay type: cell-based; details: HEK293T cells, progesterone 1 nM plus increasing amounts; FIG. 2
T1 construct: expressed in transfected cells; host or cells: HEK293T
T1 sequence (P06401 1-933): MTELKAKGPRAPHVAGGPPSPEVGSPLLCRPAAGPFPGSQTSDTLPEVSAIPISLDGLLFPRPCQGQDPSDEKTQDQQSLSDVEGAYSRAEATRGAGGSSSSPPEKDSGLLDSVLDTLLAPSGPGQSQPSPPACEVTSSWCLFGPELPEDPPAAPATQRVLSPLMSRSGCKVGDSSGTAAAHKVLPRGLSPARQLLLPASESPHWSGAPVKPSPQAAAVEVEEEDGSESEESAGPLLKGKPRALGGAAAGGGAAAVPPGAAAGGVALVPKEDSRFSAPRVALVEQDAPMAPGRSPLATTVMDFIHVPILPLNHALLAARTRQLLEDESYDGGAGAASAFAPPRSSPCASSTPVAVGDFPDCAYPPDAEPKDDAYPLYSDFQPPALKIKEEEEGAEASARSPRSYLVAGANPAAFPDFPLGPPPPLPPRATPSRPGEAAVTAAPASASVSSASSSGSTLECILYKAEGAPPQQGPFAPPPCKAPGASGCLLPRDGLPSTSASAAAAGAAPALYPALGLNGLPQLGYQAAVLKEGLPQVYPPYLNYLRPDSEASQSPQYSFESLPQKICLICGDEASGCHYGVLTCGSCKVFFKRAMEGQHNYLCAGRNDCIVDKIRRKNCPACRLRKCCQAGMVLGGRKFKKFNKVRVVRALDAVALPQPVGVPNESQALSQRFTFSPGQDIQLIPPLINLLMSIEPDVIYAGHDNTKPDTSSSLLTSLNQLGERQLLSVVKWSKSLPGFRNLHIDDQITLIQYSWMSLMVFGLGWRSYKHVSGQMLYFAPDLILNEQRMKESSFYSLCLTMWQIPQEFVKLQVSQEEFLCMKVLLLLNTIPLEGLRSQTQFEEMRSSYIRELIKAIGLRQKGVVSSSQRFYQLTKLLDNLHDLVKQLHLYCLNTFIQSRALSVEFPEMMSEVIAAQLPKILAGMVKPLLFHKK
Protocol: The main experimental setting used is the following: HEK293T cells were transiently transfected, using calcium phosphate precipitation technology, with expression vectors pSG5hPR (which permits expression of human progesterone receptor (PR)), pFC31-luc (contains the luciferase gene under the control of the MMTV promoter, which is in turn activated by binding of a progestin to progesterone receptor) and pcbetagal (which permits expression of betagalactosidase), and cultured during 24 hours with increasing amounts of various compositions:
Test of progesterone receptor […] activity: transfected cells were cultured with progesterone (1 nM) and increasing amounts of RU486 (a well-known progesterone receptor antagonist) or 3-methoxy-pregnenolone.
With this setting, a compound with progesterone receptor antagonist activity competes with progesterone for the occupation of progesterone receptor and results in a progressive loss of transactivation activity when the amount of this compound is increased compared to progesterone.

[2] = tested on: GABA (non-selective); assay: CNS receptor binding assay, GABA; details: MAP4343 10 μM; [3H] GABA; rat cerebral cortex
Description: MAP4343 has been screened for in vitro affinity to 80 different CNS neurotransmitters receptors using various validated binding assays.

[3] = tested on: Wistar Kyoto (WKY) rats; assay: Novel object recognition (NOR) test in WKY rats, chronic administration; assay type: in vivo, rat; details: MAP4343 15 mg/kg, s.c., 24 days
Protocol: Wistar Kyoto (WKY) rats are considered as a model of treatment-resistant depression, while Wistar (WI) rats are used as control strain of WKY rats. During this experiment both WI and WKY rats were administered with MAP4343 (15 mg/Kg), subcutaneously (s.c.) for 24 days. Behavioral tests were performed at during the last week of treatment, and rats were finally sacrificed for addressing neurogenesis in Gyrus dentate of hippocampus using histological experiments. Organization of this protocol is depicted in FIG. 7.
MAP4343 was diluted in sesame oil, and then administered subcutaneously (s.c.) at the dose of 15 mg/kg during 24 days. The vehicle group received only the sesame oil (1 ml/kg) in the similar conditions.
The NOR task is a test of recognition memory based on the spontaneous preference of rats for novelty. The applied procedure was based on that previously described by Ennaceur and Delacour (1988). NOR task was performed at D21 of the treatment period (see FIG. 7). In a first session (habituation, 5 min), each rat was familiarized with two identical objects placed in the border of the open-field area (70×100×70 cm). In a second session performed 1 h after (novel object recognition, 5 min), one of the two familiar objects was replaced by a novel object. […] Results are given as exploratory time for the novel object and the total exploratory time.

[4] = tested on: social-isolated adult male Sprague Dawley rats; details: cited from earlier work
[5] = tested on: tree shrews exposed to chronic psychosocial stress; details: 4-week daily administration; cited from earlier work

With `CO[C@H]1CC[C@@]2(C)C(=CC[C@H]3[C@@H]4CC[C@H](C(C)=O)[C@@]4(C)CC[C@@H]32)C1` [MAP4343, 3β-methoxy-pregna-5-ene-20-one] the “progesterone receptor antagonist activity (loss of transactivation)” value [1] was “weak progesterone receptor antagonist”, the “% Inhibition of control specific binding” value [2] was 2% and the “time spent with the novel object in NOR, change vs WKY receiving only vehicle” value ([3]; FIG. 8B) was “+58%”. For the same compound, the “total exploratory time in NOR, change vs WKY receiving only vehicle” value ([3]; FIG. 8C) was “+41%”, the “anxiety in the EPM test” value ([4]; acute phase (2 days of daily injections)) was “not in the acute phase” and the “anxiety in the EPM test” value ([4]; subchronic phase (8 days of daily injections)) was “recovered increased anxiety”. For the same compound, the “hormone hypersecretion, hypothermia and sleep disturbances” value [5] was “prevent hormone hypersecretion, hypothermia and sleep disturbances” and the stress-triggered avoidance behavior [5] was “abolish stress-triggered avoidance behavior”.
